Measured values published in patent publication US20140011889A1, “Resveratrol-Containing Compositions and Methods of Use for Cardiac-Related Diseases” (Resveratrol Partners, LLC, priority 2010, published 2014).

What was measured:
rhabdomyosarcoma cells = conditions: low dosage; cited from earlier work
injected tumors = conditions: mice with injected tumors; cited from earlier work
SIRT1 = target: T1, SIRT1 (Homo sapiens, UniProt Q96EB6); experiment: SIRT1 Fluorescent Activity Assay/Drug Discovery Kit AK-555; format: biochemical; conditions: capsules stored under ambient conditions
T1 sequence (Q96EB6 1-747): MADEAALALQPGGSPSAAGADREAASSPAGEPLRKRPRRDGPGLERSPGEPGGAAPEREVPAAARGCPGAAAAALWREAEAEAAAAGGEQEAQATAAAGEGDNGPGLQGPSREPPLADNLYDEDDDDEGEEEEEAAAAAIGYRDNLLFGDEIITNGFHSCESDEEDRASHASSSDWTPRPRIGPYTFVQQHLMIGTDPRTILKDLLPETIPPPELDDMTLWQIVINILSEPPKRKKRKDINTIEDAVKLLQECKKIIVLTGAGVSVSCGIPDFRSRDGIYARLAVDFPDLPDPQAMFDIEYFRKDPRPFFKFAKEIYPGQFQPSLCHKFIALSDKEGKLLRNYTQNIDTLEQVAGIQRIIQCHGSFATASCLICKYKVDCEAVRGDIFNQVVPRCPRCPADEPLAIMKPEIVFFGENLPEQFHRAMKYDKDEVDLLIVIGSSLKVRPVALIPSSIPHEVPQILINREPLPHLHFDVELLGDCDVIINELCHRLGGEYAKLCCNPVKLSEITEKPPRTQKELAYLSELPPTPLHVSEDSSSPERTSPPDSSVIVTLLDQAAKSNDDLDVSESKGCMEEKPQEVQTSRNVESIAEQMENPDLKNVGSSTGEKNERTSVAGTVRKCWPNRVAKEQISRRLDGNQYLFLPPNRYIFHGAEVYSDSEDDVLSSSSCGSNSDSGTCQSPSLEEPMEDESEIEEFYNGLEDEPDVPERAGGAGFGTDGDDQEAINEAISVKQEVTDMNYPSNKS

cancer risk = conditions: 1100 IU, 4-year period, women in Nebraska; cited from earlier work
breast cancer cells = conditions: cited from earlier work
reactive oxygen species = experiment: Intracellular ROS by CM-H2DCFDA fluorescence in I/R heart; format: in vivo, rat; conditions: IR heart, FIG. 19
Description: The dye was injected intravenously, prior to induction of ischemia/reperfusion, and at the end of the experiments, the level of fluorescence was determined for the generation of ROS by measuring the fluorescent oxidation product CM-DCF in the cytosol, at an excitation wavelength of 480 nm and an emission wavelength of 520 nm.

miR-20b = miR-20b quantification in I/R heart, Taqman real-time PCR; format: in vivo, rat; conditions: I/R alone: down regulation […]; FIG. 17C
Excerpt: Animals. […] Male Sprague-Dawley rats weighing between 250 and 300 g were fed ad libitum regular rat chow with free access to water until the start of the experimental procedure.

Which results are given for `O=P(O)(O)O[C@H]1[C@H](OP(=O)(O)O)[C@@H](OP(=O)(O)O)[C@H](OP(=O)(O)O)[C@@H](OP(=O)(O)O)[C@H]1OP(=O)(O)O` [IP6, (2,3,4,5,6-pentaphosphonooxycyclohexyl)dihydrogen phosphate]?
suppression of growth of rhabdomyosarcoma cells (rhabdomyosarcoma cells): 50%; tumor size, times smaller than non-treated mice (injected tumors): 50 times

For `O=c1c(O)c(-c2ccc(O)c(O)c2)oc2cc(O)cc(O)c12` [quercetin], which “biological activity of encapsulated quercetin (ability to stimulate SIRT1 activity)” value (SIRT1) is on record?
The value was “maintained biological activity”.

Which “reduction in cancer risk” value (cancer risk) does the source give for `C=C1CC[C@H](O)C/C1=C/C=C1\CCC[C@]2(C)[C@@H]([C@H](C)CCCC(C)C)CC[C@@H]12` [vitamin D3, cholecalciferol] here?
The value was 60-77%.

And the “decline of number of breast cancer cells” value (breast cancer cells; higher concentrations of vitamin D3)?
Its value is “about 25%”.

What about the “decline of breast tumor cell numbers” value (breast cancer cells; low-dose vitamin D3) of the same compound?
Its value is “does not reduce”.

For `CC(C)=CCC/C(C)=C/CC/C(C)=C/CC[C@]1(C)CCc2cc(O)c(C)c(C)c2O1` [γ-tocotrienol], which “intracellular ROS concentration compared to control” value (reactive oxygen species) is on record?
Its value is “lowered”.

What about the “miR-20b expression in pretreated I/R hearts” value (miR-20b) of the same compound?
Its value is 9.4 fold.
